Data on 10 compounds can be found in publication PMC8539310, “In Vitro Anti-HIV-1 Reverse Transcriptase and Integrase Properties of Punica granatum L. Leaves, Bark, and Peel Extracts and Their Main Compounds” (Plants, 2021).

Some results are limits rather than exact numbers.

Series [1] addresses T1, HIV-1 RT-associated RNase H (Human immunodeficiency virus type 1 group M subtype B, UniProt P04585).
T1 construct: HIV-1 group M subtype B heterodimeric RT; made in house
Put plainly: RNase H polymerase independent cleavage assay. It is filed as biochemical. Conditions: for remaining activity at 100 µM: read-out: Percentage of control RNase H activity in the presence of the indicated drug concentration. As for the experimental part:
HIV-1 group M subtype B heterodimeric RT was expressed and purified essentially as previously described.
HIV RT-associated RNase H activity was measured as described by Corona et al. 2016 [68] using the RNase H inhibitor RDS1759 as a control. Data analysis of the assay results was performed using GraphPad Prism 9.

Series [2] deals with T2, HIV-1 IN in the presence of LEDGF/p75 (Human immunodeficiency virus type 1 group M subtype B, UniProt P04585).
T2 construct: Recombinant IN and LEDGF/p75 proteins were expressed and purified; made in house
Put plainly: HTRF IN LEDGF-dependent assay. Conditions: for remaining activity at 100 µM: read-out: Percentage of control IN LEDGF-dependent activity in the presence of the indicated drug concentration; for Inhibition of HIV-1 IN LEDGF-dependent activity (in words): highest tested concentration; for IC50: pure compounds, in the presence of LEDGF, read-out: HIV-1 Integrase LEDGF-Dependent IC50. It is filed as biochemical. Here is the method:
Recombinant IN and LEDGF/p75 proteins were expressed and purified as described by Esposito et al. 2020 [67].
The IN activity was measured in the presence of LEDGF/p75 cellular cofactor in an HTRF assay. Data analysis of the assay results was performed using GraphPad Prism 9.
On the technique in general: TR-FRET usually uses a lanthanide donor and a delayed reading to cut background.

In series [3] the test system is HIV-1 RT, wild-type and mutant. Further details: method as in PMID 23821410. Particulars: wild-type and mutant RTs; cited from earlier work.
The next series concerns X4-tropic HIV-1. More on the design: method as in PMID 29480632. Conditions: target cells; cited from earlier work.
The next series has as its system HIV-1 protease. Conditions: cited from earlier work.
For series [4], the system named is HIV RT DNA polymerase activity. Further details: method as in Nutan et al. 2013 51. Particulars: ref Nutan et al. 2013 51; cited from earlier work.
In the next series the test system is target cells. Particulars: cited from earlier work.
The test system of series [5] is HIV-1 infection in Jurkat cells. Further details: method as in PMID 22140483. Particulars: cited from earlier work.
The next series deals with HIV-1 in H9 lymphocytes. More on the design: method as in PMID 1698933. Conditions: infected H9 lymphocytes; cited from earlier work.
A further series has as its system H9 lymphocytes. Further details: method as in PMID 1698933. Conditions: cited from earlier work.

One may read the IC50 as the concentration that inhibits the measured activity by half. Take `O=c1cc(-c2ccc(O)cc2)oc2cc(O[C@@H]3O[C@H](CO)[C@@H](O)[C@H](O)[C@H]3O)cc(O)c12` [Apigenin 7-O-glucoside]: the remaining activity at 100 µM in [1] worked out at 100%. In series [1] (pure compounds), this compound showed an IC50 greater than 100 µM. Moreover, in series [2], the remaining activity at 100 µM was 100%, the “Inhibition of HIV-1 IN LEDGF-dependent activity (in words)” value (“Inhibition … (in words)” for short) is “totally inactive” and the IC50 is greater than 100 µM.
For `O=c1cc(-c2ccc(O)cc2)oc2cc(O)cc(O)c12` [Apigenin], the IC50 in series [1] (pure compounds) was 16.1 ± 0.6 µM; in series [2], 22 ± 3.5 µM.
Compound `C=C(C)[C@@H]1CC[C@]2(C(=O)O)CC[C@]3(C)[C@H](CC[C@@H]4[C@@]5(C)CC[C@H](O)C(C)(C)[C@@H]5CC[C@]43C)[C@@H]12` [Betulinic acid] had an IC50 in [1] (pure compounds) of 2 ± 0.2 µM. In series [2], the “Inhibition … (in words)” value is reported as “weakly active” and the concentration for half-maximal inhibition (IC50) is 96.5 ± 3.5 µM. Moreover, the “Inhibition of HIV-1 RT-associated functions” value in [3] is reported as “inhibited”.
As to `O=c1oc2c(O)c(O)cc3c(=O)oc4c(O)c(O)cc1c4c23` [Ellagic acid], the IC50 came to 1.4 ± 0.11 µM in series [1] (pure compounds) and 0.075 ± 0.0005 µM in series [2]. In addition, the “Suppression of replication of X4-tropic HIV-1” value in the series on X4-tropic HIV-1 is “able to suppress”. For the same compound, the “Inhibition of HIV-1 protease expression” value in the series on HIV-1 protease is given as “ability to inhibit”. Also, the “Inhibition of HIV RT (DNA polymerase activity)” value in series [4] is “inability”. The Cytotoxicity result with target cells is recorded as “without cytotoxicity”.
With `O=c1cc(-c2ccc(O[C@@H]3O[C@H](CO)[C@@H](O)[C@H](O)[C@H]3O)c(O)c2)oc2cc(O)cc(O)c12` [Luteolin 4′-O-glucoside], the remaining activity at 100 µM in series [1] was 100%. Further, the IC50 in series [1] (pure compounds) was greater than 100 µM. In series [2], the remaining activity at 100 µM was 100%, the “Inhibition … (in words)” value was “totally inactive” and the IC50 is greater than 100 µM.
For `O=c1cc(-c2ccc(O)c(O)c2)oc2cc(O)cc(O)c12` [Luteolin], the IC50 in series [1] (pure compounds) stood at 3.7 ± 0.5 µM; in series [2], 6.5 ± 0.5 µM. Also, the “Inhibition of HIV-1 infection” value in series [5] is recorded as “capable of inhibiting”.
`CC1(C)CC[C@]2(C(=O)O)CC[C@]3(C)C(=CC[C@@H]4[C@@]5(C)CC[C@H](O)C(C)(C)[C@@H]5CC[C@]43C)[C@@H]2C1` [Oleanolic acid]: in [1] (pure compounds), the 50% inhibitory concentration (IC50) is 6.7 ± 0.4 µM. In series [2], the remaining activity at 100 µM was 74%, the “Inhibition … (in words)” value is “inactive” and the concentration for half-maximal inhibition (IC50) is greater than 100 µM. Moreover, the “Inhibition of protease expression” value in the series with HIV-1 protease was “inhibit”.
Turning to `O=C1OC2C(O)OC3COC(=O)c4cc(O)c(O)c(O)c4-c4c(O)c(O)c5oc(=O)c6c(c(O)c(O)c7oc(=O)c4c5c76)-c4c(cc(O)c(O)c4O)C(=O)OC3C2OC(=O)c2cc(O)c(O)c(O)c2-c2c1cc(O)c(O)c2O` (stereo not drawn) [Punicalagins, Punicalagin α + β], the “HIV-1 RT-Associated RNase H IC50” value in [1] (pure compounds) came out at 0.12 ± 0.00 µM. Besides, the IC50 in [2] was 0.065 µM. Besides, the “Inhibition of HIV-1 replication” value with HIV-1 in H9 lymphocytes was “inhibited”. Also, the Cytotoxicity entry in the series on H9 lymphocytes is reported as “low degree of cytotoxicity”.
As for `CCOC(=O)C(=O)CC(=O)/C=C/c1cccn1Cc1ccccc1Cl` [RDS1759, reference compound], the “HIV-1 RT-Associated RNase H IC50” value in [1] (reference compound of Table 1, footnote c: expressed in µM) was 10.7 ± 0.9^c µM.
`C[C@H]1[C@H](C)CC[C@]2(C(=O)O)CC[C@]3(C)C(=CC[C@@H]4[C@@]5(C)CC[C@H](O)C(C)(C)[C@@H]5CC[C@]43C)[C@H]12` [Ursolic acid] had an IC50 in [1] (pure compounds) of 5.7 ± 0.1 µM. Besides, in series [2], the remaining activity at 100 µM was 68%, the “Inhibition … (in words)” value was “inactive” and the half-inhibitory concentration (IC50) was greater than 100 µM. In addition, the “Inhibition of protease expression” value with HIV-1 protease is given as “inhibit”.
